Assay results: paper PMC5689459 (European journal of medicinal chemistry, 2010)
Read-outs that look alike come from different tables or passages of the source. Where a SMILES comes first, the peptide text is derived from it. [ ]: non-standard residue; d: D form. d(β3hP) = O=C(O)C[C@H]1CCCN1; β3hP = O=C(O)C[C@@H]1CCCN1

Assays:
[1] = biological target: κ-opioid receptor (Homo sapiens, UniProt P41145); test: Radioligand competition binding, displacement of [3H]U69,593
[2] = biological target: T1, μ-opioid receptor (Homo sapiens, UniProt P35372); test: Radioligand competition binding, displacement of [3H]DAMGO; conditions: for Selectivity Kiδ/Kiμ: ratio of δ and μ binding Ki
[3] = biological target: T2, δ-opioid receptor (Homo sapiens, UniProt P41143); test: Radioligand competition binding, displacement of [3H]DPDPE
[4] = biological target: δ-opioid receptors (MVD) (Mus musculus, UniProt P32300); test: MVD in vitro tissue bioassay; format: biochemical
[5] = biological target: μ-opioid receptors (GPI); test: GPI/LMMP in vitro tissue bioassay; format: biochemical, guinea pig; conditions: read-out: Bioassay GPI (IC50); ± S.E.M.
[6] = biological target: T2, δ-opioid receptor; conditions: read-out: Receptor affinity Kiδ; cited from earlier work
[7] = biological target: T1, μ-opioid receptor; conditions: ratio of δ and μ binding Ki; cited from earlier work

Compound	Ki [1]	Ki [2]	Ki [3]	Selectivity Kiδ/Kiμ [2]	Bioassay MVD, % at 1 μM [4]	IC50 [5]	Ki [6]	Selectivity Kiδ/Kiμ [7]
NC(=O)[C@H](Cc1ccccc1)NC(=O)[C@H](Cc1ccccc1)NC(=O)C[C@@H]1CCCN1C(=O)[C@@H](N)Cc1ccc(O)cc1 [Compound 6a, H–Tyr–(S)-HPro–Phe–Phe–NH2]	0.99 ± 0.012 µM	0.058 ± 0.005 µM						
NC(=O)[C@H](Cc1ccccc1)NC(=O)[C@H](Cc1ccccc1)NC(=O)C[C@H]1CCCN1C(=O)[C@@H](N)Cc1ccc(O)cc1 [Compound 6b, H–Tyr–(R)-HPro–Phe–Phe–NH2]	10 ± 1.2 µM	0.293 ± 0.027 µM	> 10 µM	> 34				
NC(=O)[C@H](Cc1ccccc1)NC(=O)[C@H](Cc1ccccc1)NS(=O)(=O)C[C@@H]1CCCN1C(=O)[C@@H](N)Cc1ccc(O)cc1 [Compound 6c, H–Tyr–(S)-HPrs–Phe–Phe–NH2]	4.8 ± 0.367 µM	0.1 ± 0.008 µM						
NC(=O)[C@@H]1CCCN1C(=O)[C@H](Cc1ccccc1)NC(=O)C[C@@H]1CCCN1C(=O)[C@@H](N)Cc1ccc(O)cc1 [Compound 7a, H–Tyr–(S)-HPro–Phe–Pro–NH2] (H-Y[β3hP]FP-NH2)	4.4 ± 0.356 µM	6.1 ± 0.553 µM	> 10 µM		33.7% at 1 μM	1.1 ± 0.115 µM		
NC(=O)[C@@H]1CCCN1C(=O)[C@H](Cc1ccccc1)NC(=O)C[C@H]1CCCN1C(=O)[C@@H](N)Cc1ccc(O)cc1 [Compound 7b, H–Tyr–(R)-HPro–Phe–Pro–NH2] (H-Y[d(β3hP)]FP-NH2)	10 ± 0.982 µM	0.03 ± 0.004 µM	> 10 µM	> 333		0.017 ± 0.003 µM		
Tyr–Pro–Phe–Pro–NH2 (YPFP) [Morphyceptin]							> 10 µM	
Tyr–Pro–Phe–Pro–NH2 [Morphyceptin]								> 74.1
